According to US7250399B2, “Compounds having growth hormone releasing activity” (The Administrators of the Tulane Educational Fund, priority 1998, dated 2007):
Values joined by “and” are separate entries in the source; they are usually repeats but may differ in a detail not shown here. Identical values can stand only once.

How the values were obtained:
Growth Hormone release [1] = experiment: In Vivo Release of Growth Hormone in Adult Beagle Dogs; parameters: unit not given here
Experimental: (§1) In vitro and in vivo activity of certain compounds were determined in rats and adult beagle dogs (in vivo activity only).

Growth Hormone release [2] = experiment: In Vitro Release of Growth Hormone in Rat; type: cell-based
Experimental: as §1

Growth Hormone release [3] = experiment: In Vivo GH Release in Rats (i.v., serum GH by RIA); parameters: species or system Sprague-Dawley rats; details: i.v., serum 10 min after injection
Experimental: Immature female Sprague-Dawley rats were obtained from the Charles River Laboratories (Wilmington, Mass.). After arrival they were housed at 25° C. with a 14:10 hour light:dark cycle. Water and Purina rat chow were available ad libitum. Pups were kept with their mothers until 21 days of age.
Twenty-six day old rats, six rats per treatment group, were anesthetized interperitoneally with 50 mg/kg of pentobarbital 20 minutes prior to i.v. treatment with peptide. Normal saline with 0.1% gelatin was the vehicle for intravenous (i.v.) injections of the peptides. The anesthetized rats, weighing 55-65 grams, were injected i.v. with the quantity of grown hormone releasing compounds indicated in Table 3. Injection was made as a 0.1 mL solution into the jugular vein.
All animals were sacrificed by guillotine 10 minutes after final test injection (see Table 3). Trunk blood for the determination of blood GH levels was collected following decapitation. After allowing the blood to clot, it was centrifuged and the serum was separated from the clot. Serum was kept frozen until the day of sampling for radioimmunoassay (RIA) determination of growth hormone levels according to the following procedure, as developed by the National Institute of Arthritis, Diabetes and Digestive and Kidney Diseases (NIADDK).
Reagents are generally added to the RIA analysis tubes at a single sitting, at refrigerator temperature (about 4° C.) in the following sequence: • (a) buffer, • (b) “cold” (i.e., non-radioactive) standard or unknown serum sample to be analyzed, • (c) radio-iodinated growth hormone antigen, and • (d) growth hormone antiserum.
Reagent addition is generally carried out so that there is achieved a final RIA tube dilution of about 1:30,000 (antiserum to total liquid volume; vol:vol).
The mixed reagents are then typically incubated at room temperature (about 25° C.) for about 24 hours prior to addition of a second antibody (e.g., goat or rabbit anti-monkey gamma globulin serum) which binds to and causes precipitation of the complexed growth hormone antiserum. Precipitated contents of the RIA tubes are then analyzed for the number of counts in a specified period of time in a gamma scintillation counter. A standard curve is prepared by plotting number of radioactive counts versus growth hormone (GH) level. GH levels of unknown are then determined by reference to the standard curve.
Serum GH was measured by RIA with reagents provided by the National Hormone and Pituitary Program.
Serum levels in Tables 3 and 4 are recorded in ng/mL in terms of the rat GH standard of 0.61 International Units/mg (IU/mg). Data is recorded as the mean ±standard error of the mean (SEM). Statistical analysis was performed with Student's t-test. In Table 3, the results shown are the average of studies with six rats.

[4] = compound at 1 (dose unit not given)
[5] = compound at .01 (dose unit not given)
[6] = compound at .1 (dose unit not given)
[7] = compound at .3 (dose unit not given)
[8] = compound at 3 (dose unit not given)

Aib-DTrp-DPro-diisobutylamide
In Vivo Release of Growth Hormone in Adult Beagle Dogs (Growth Hormone release [1]; oral dose 1 mg/kg, time 0.5 hr, listed as DPo-diisobutylamide, 1 mg/kg): 85 and 128 and 89 | In Vivo Release of Growth Hormone in Adult Beagle Dogs (Growth Hormone release [1]; oral dose 1 mg/kg, time 1 hr, listed as DPo-diisobutylamide, 1 mg/kg): 30 and 50 and 59 | In Vivo Release of Growth Hormone in Adult Beagle Dogs (Growth Hormone release [1]; oral dose 1 mg/kg, time 2 hr, listed as DPo-diisobutylamide, 1 mg/kg): 16 and 24 and 30 | In Vivo Release of Growth Hormone in Adult Beagle Dogs (Growth Hormone release [1]; oral dose 1 mg/kg, time 4 hr, listed as DPo-diisobutylamide, 1 mg/kg): 6 and 5.6 and 7 | In Vivo Release of Growth Hormone in Adult Beagle Dogs (Growth Hormone release [1]; oral dose 1 mg/kg, time 7 hr, listed as DPo-diisobutylamide, 1 mg/kg): 2.5 and 2.2 and 3.7 | In Vivo Release of Growth Hormone in Adult Beagle Dogs (Growth Hormone release [1]; oral dose 2 mg/kg, time 0.5 hr): 54 | In Vivo Release of Growth Hormone in Adult Beagle Dogs (Growth Hormone release [1]; oral dose 2 mg/kg, time 1 hr): 30 | In Vivo Release of Growth Hormone in Adult Beagle Dogs (Growth Hormone release [1]; oral dose 2 mg/kg, time 2 hr): 22 | In Vivo Release of Growth Hormone in Adult Beagle Dogs (Growth Hormone release [1]; oral dose 2 mg/kg, time 3 hr): 15 | In Vivo Release of Growth Hormone in Adult Beagle Dogs (Growth Hormone release [1]; oral dose 2 mg/kg, time 4 hr): 7 | In Vivo Release of Growth Hormone in Adult Beagle Dogs (Growth Hormone release [1]; oral dose 2 mg/kg, time 5 hr): 4.6 | In Vivo Release of Growth Hormone in Adult Beagle Dogs (Growth Hormone release [1]; oral dose 2 mg/kg, time 6 hr): 4.8 | In Vivo Release of Growth Hormone in Adult Beagle Dogs (Growth Hormone release [1]; oral dose 2 mg/kg, time 8 hr): 1.8 | In Vivo Release of Growth Hormone in Adult Beagle Dogs (Growth Hormone release [1]; oral dose 4 mg/kg, time 0 hr, listed as DPo-diisobutylamide, 4 mg/kg): 1.4 and 0.8 | In Vivo Release of Growth Hormone in Adult Beagle Dogs (Growth Hormone release [1]; oral dose 4 mg/kg, time 3 hr, listed as DPo-diisobutylamide, 4 mg/kg): 15 and 22 | In Vivo Release of Growth Hormone in Adult Beagle Dogs (Growth Hormone release [1]; oral dose 4 mg/kg, time 7 hr, listed as DPo-diisobutylamide, 4 mg/kg): 6.9 | In Vitro Release of Growth Hormone in Rat, GH (Growth Hormone release [2]; [4]): 1124 ng/mL | In Vitro Release of Growth Hormone in Rat, GH (Growth Hormone release [2]; [5]): 1322 ng/mL | In Vitro Release of Growth Hormone in Rat, GH (Growth Hormone release [2]; compound at .03 (dose unit not given)): 1529 ng/mL | In Vitro Release of Growth Hormone in Rat, GH (Growth Hormone release [2]; [6]): 1427 ng/mL | In Vitro Release of Growth Hormone in Rat, GH (Growth Hormone release [2]; [7]): 1155 ng/mL | In Vivo Release of Growth Hormone in Rat, GH (Growth Hormone release [3]; [4]): 642 ng/mL | In Vivo Release of Growth Hormone in Rat, GH (Growth Hormone release [3]; [8]): 1524 ng/mL | In Vivo Release of Growth Hormone in Rat, GH (Growth Hormone release [3]; compound at 10 (dose unit not given)): 1837 ng/mL | In Vivo Release of Growth Hormone in Rat, GH (Growth Hormone release [3]; compound at 30 (dose unit not given)): 2307 ng/mL | In Vivo Release of Growth Hormone in Rat, GH (Growth Hormone release [3]; compound at 100 (dose unit not given)): 2913 ng/mL

Aib-DTrp-DTrp-Phe-Arg-5-aminopentylamide [DTrpPhe-Arg-5-amino pentamide]
In Vivo Release of Growth Hormone in Adult Beagle Dogs (Growth Hormone release [1]; oral dose 1 mg/kg, time 0 hr): 2.5 | In Vivo Release of Growth Hormone in Adult Beagle Dogs (Growth Hormone release [1]; oral dose 1 mg/kg, time 0.5 hr): 38 | In Vivo Release of Growth Hormone in Adult Beagle Dogs (Growth Hormone release [1]; oral dose 1 mg/kg, time 1 hr): 8.5 | In Vivo Release of Growth Hormone in Adult Beagle Dogs (Growth Hormone release [1]; oral dose 1 mg/kg, time 2 hr): 2.8 | In Vivo Release of Growth Hormone in Adult Beagle Dogs (Growth Hormone release [1]; oral dose 1 mg/kg, time 3 hr): 2.3 | In Vivo Release of Growth Hormone in Adult Beagle Dogs (Growth Hormone release [1]; oral dose 1 mg/kg, time 4 hr): 1.4 | In Vivo Release of Growth Hormone in Adult Beagle Dogs (Growth Hormone release [1]; oral dose 1 mg/kg, time 5 hr): 1.7 | In Vivo Release of Growth Hormone in Adult Beagle Dogs (Growth Hormone release [1]; oral dose 1 mg/kg, time 6 hr): 2.1 | In Vivo Release of Growth Hormone in Adult Beagle Dogs (Growth Hormone release [1]; oral dose 1 mg/kg, time 7 hr): 2 | In Vivo Release of Growth Hormone in Adult Beagle Dogs (Growth Hormone release [1]; oral dose 1 mg/kg, time 8 hr): 0.8 | In Vivo Release of Growth Hormone in Adult Beagle Dogs (Growth Hormone release [1]; oral dose 2 mg/kg, time 0 hr): 3.1 | In Vivo Release of Growth Hormone in Adult Beagle Dogs (Growth Hormone release [1]; oral dose 2 mg/kg, time 0.5 hr): 83 | In Vivo Release of Growth Hormone in Adult Beagle Dogs (Growth Hormone release [1]; oral dose 2 mg/kg, time 1 hr): 20 | In Vivo Release of Growth Hormone in Adult Beagle Dogs (Growth Hormone release [1]; oral dose 2 mg/kg, time 2 hr): 6.8 | In Vivo Release of Growth Hormone in Adult Beagle Dogs (Growth Hormone release [1]; oral dose 2 mg/kg, time 3 hr): 3.9 | In Vivo Release of Growth Hormone in Adult Beagle Dogs (Growth Hormone release [1]; oral dose 2 mg/kg, time 4 hr): 2.9 | In Vivo Release of Growth Hormone in Adult Beagle Dogs (Growth Hormone release [1]; oral dose 2 mg/kg, time 5 hr): 3.3 | In Vivo Release of Growth Hormone in Adult Beagle Dogs (Growth Hormone release [1]; oral dose 2 mg/kg, time 6 hr): 3.1 | In Vivo Release of Growth Hormone in Adult Beagle Dogs (Growth Hormone release [1]; oral dose 2 mg/kg, time 7 hr): 3.3 | In Vivo Release of Growth Hormone in Adult Beagle Dogs (Growth Hormone release [1]; oral dose 2 mg/kg, time 8 hr): 3 | In Vitro Release of Growth Hormone in Rat, GH (Growth Hormone release [2]; compound at .0001 (dose unit not given)): 1228 ng/mL | In Vitro Release of Growth Hormone in Rat, GH (Growth Hormone release [2]; compound at .0003 (dose unit not given)): 1416 ng/mL | In Vitro Release of Growth Hormone in Rat, GH (Growth Hormone release [2]; compound at .001 (dose unit not given)): 1712 ng/mL | In Vitro Release of Growth Hormone in Rat, GH (Growth Hormone release [2]; compound at .003 (dose unit not given)): 1648 ng/mL | In Vitro Release of Growth Hormone in Rat, GH (Growth Hormone release [2]; [5]): 1621 ng/mL | In Vivo Release of Growth Hormone in Rat, GH (Growth Hormone release [3]; [4]): 2272 ng/mL | In Vivo Release of Growth Hormone in Rat, GH (Growth Hormone release [3]; [8]): 2929 ng/mL | In Vivo Release of Growth Hormone in Rat, GH (Growth Hormone release [3]; [6]): 262 ng/mL | In Vivo Release of Growth Hormone in Rat, GH (Growth Hormone release [3]; [7]): 274 ng/mL
